{
  "source": "ChEMBL document CHEMBL5696442",
  "about": "“Discovery of type II inhibitors of TGFβ-activated kinase 1 (TAK1) and mitogen-activated protein kinase kinase kinase kinase 2 (MAP4K2)” (J Med Chem, 2015)",
  "key": {"[1]": {"molecular_target": "T1, Serine/threonine-protein kinase TAO1 (Homo sapiens) (UniProt Q7L7X3)", "T1 sequence (whole entry)": "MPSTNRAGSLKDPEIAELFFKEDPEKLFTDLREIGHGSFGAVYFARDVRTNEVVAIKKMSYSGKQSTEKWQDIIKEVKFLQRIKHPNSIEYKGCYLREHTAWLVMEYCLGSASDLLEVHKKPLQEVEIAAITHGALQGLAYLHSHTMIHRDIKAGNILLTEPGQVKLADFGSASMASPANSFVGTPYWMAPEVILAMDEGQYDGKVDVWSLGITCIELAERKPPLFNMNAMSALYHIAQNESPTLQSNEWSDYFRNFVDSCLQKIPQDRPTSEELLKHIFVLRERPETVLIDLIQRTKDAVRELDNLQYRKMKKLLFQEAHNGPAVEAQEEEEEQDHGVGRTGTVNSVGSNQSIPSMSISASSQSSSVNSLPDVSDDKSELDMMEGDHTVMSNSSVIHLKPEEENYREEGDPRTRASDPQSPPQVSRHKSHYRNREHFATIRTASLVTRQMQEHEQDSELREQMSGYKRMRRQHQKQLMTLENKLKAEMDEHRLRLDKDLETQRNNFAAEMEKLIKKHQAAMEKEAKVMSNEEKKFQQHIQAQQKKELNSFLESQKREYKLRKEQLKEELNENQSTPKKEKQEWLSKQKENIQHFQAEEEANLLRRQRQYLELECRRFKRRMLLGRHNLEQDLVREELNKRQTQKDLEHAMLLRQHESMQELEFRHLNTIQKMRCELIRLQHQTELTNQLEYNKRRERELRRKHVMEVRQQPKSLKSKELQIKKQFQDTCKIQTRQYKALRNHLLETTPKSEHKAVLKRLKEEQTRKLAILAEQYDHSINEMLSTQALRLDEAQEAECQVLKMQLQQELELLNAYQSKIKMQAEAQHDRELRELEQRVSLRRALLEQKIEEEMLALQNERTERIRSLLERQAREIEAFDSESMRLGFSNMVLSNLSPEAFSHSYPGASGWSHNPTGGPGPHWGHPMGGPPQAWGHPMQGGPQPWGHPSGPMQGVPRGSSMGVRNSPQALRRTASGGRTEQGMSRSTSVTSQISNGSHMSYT", "assay": "Inhibition of TAO1 Lys2 labeling site in human Huh-7 cells at 1 uM by KiNativ Profiling analysis relative to control", "format": "cell-based"}, "[2]": {"molecular_target": "Ribosomal protein S6 kinase alpha-1 (Homo sapiens) (UniProt Q15418)", "sequence (Q15418 whole entry, the tested form may be a part)": "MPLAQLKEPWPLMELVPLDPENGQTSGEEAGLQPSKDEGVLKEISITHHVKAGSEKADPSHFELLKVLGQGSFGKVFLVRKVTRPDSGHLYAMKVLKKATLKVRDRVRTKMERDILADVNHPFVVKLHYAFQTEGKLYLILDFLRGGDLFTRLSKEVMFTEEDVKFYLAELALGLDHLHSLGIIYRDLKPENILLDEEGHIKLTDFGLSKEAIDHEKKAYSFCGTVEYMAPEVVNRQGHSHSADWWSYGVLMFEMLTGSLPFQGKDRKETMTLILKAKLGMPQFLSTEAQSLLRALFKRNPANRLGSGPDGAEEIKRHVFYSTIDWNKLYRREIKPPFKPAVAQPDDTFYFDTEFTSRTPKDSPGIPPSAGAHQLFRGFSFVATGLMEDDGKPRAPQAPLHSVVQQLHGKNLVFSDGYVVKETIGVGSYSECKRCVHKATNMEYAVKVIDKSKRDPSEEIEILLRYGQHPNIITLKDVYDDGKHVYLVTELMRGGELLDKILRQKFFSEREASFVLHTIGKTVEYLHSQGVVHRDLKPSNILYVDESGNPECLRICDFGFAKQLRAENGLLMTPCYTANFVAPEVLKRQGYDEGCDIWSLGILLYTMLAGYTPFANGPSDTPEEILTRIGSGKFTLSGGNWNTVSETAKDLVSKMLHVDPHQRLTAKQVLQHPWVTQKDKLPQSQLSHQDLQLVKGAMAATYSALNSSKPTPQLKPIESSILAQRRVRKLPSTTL", "assay": "Inhibition of RSK1 domain 1 ACT labeling site in human Huh-7 cell lysate at 1 uM by KiNativ Profiling analysis relative to control", "format": "subcellular"}, "[3]": {"molecular_target": "T2, Serine/threonine-protein kinase TBK1 (Homo sapiens) (UniProt Q9UHD2)", "T2 sequence (whole entry)": "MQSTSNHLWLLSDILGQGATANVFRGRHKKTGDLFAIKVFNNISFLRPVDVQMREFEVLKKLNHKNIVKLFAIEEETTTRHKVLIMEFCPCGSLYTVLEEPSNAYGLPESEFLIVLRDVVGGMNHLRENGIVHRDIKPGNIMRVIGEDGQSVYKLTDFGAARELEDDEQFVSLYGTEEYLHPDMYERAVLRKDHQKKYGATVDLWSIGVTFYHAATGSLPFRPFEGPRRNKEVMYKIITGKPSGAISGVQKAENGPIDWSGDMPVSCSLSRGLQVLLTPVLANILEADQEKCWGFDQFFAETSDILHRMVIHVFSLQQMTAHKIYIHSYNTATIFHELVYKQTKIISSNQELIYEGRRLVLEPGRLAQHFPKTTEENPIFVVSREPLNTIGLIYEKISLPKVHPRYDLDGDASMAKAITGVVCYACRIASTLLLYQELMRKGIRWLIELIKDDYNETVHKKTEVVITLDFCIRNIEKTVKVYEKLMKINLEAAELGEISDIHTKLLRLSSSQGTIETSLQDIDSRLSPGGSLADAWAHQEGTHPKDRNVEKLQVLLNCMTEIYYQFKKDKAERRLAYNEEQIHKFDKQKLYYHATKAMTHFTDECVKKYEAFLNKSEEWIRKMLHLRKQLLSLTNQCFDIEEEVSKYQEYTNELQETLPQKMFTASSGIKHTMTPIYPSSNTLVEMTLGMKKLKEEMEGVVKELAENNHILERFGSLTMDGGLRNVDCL", "assay": "Inhibition of TBK1 Lys2 labeling site in human Huh-7 cell lysate at 1 uM by KiNativ Profiling analysis relative to control", "format": "subcellular"}, "[4]": {"molecular_target": "T3, Phosphatidylinositol 4,5-bisphosphate 3-kinase catalytic subunit delta isoform (Homo sapiens) (UniProt O00329)", "T3 sequence (whole entry)": "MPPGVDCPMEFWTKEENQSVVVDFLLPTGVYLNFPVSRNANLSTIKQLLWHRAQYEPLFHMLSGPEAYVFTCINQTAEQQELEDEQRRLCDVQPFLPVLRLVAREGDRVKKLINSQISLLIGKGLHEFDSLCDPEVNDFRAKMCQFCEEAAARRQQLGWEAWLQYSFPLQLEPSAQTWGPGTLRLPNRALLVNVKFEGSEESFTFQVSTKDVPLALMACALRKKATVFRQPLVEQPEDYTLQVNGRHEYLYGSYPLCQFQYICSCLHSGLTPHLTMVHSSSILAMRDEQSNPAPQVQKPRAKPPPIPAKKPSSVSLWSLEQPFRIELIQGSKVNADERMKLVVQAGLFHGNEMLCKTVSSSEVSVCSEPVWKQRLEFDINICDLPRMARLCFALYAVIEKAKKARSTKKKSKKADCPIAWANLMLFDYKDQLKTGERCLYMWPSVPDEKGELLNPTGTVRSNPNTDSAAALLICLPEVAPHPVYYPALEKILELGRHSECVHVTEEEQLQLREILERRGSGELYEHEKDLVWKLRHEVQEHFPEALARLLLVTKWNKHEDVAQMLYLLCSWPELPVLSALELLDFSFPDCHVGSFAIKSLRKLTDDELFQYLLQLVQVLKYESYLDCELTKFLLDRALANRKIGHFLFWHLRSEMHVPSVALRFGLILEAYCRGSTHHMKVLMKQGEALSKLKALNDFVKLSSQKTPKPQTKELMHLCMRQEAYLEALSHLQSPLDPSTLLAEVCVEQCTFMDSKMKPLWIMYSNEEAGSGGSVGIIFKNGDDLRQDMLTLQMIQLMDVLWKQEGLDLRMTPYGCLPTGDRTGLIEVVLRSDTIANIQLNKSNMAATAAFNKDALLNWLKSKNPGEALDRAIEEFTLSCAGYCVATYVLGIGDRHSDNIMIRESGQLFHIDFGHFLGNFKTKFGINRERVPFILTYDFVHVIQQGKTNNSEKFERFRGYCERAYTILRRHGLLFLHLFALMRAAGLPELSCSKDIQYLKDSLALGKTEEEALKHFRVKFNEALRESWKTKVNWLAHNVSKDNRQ", "assay": "Inhibition of PIK3CD ATP labeling site in human A-375 cells at 0.5 uM by KiNativ Profiling analysis relative to control", "format": "cell-based"}, "[5]": {"molecular_target": "Ephrin type-B receptor 1 (Homo sapiens) (UniProt P54762)", "sequence (P54762 whole entry)": "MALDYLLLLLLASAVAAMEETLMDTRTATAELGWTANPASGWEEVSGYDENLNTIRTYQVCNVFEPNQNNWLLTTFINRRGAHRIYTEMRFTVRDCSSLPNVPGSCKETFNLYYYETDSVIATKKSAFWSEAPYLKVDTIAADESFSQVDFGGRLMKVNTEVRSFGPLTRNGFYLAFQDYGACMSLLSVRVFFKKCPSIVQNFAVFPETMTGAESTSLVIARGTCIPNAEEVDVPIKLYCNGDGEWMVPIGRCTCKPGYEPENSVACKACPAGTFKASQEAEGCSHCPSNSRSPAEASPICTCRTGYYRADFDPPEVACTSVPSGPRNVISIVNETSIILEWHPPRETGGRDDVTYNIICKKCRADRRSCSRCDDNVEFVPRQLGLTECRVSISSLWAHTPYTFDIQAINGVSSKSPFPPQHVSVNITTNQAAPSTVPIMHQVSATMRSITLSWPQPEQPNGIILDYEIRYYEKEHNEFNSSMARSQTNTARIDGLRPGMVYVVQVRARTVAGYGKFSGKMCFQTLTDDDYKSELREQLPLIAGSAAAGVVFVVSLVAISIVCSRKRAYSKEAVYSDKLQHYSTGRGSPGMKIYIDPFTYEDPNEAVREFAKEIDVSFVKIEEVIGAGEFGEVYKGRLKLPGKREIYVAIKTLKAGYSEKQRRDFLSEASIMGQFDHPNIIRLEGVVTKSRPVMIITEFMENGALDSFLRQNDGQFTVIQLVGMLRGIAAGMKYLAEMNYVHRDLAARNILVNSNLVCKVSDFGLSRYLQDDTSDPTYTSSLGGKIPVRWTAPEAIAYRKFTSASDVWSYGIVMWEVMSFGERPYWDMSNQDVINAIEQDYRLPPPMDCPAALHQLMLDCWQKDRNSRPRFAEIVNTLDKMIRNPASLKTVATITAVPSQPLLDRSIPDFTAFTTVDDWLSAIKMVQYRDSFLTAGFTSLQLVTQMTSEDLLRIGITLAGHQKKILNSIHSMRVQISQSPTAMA", "assay": "Inhibition of EPHB1 (unknown origin) at 1 uM by Ambit Kinomescan binding assay relative to control; values are per cent of control"}},
  "data": [
    {"molecule": "CNc1cc(Oc2cc(C(=O)Nc3cc(N4CCN(C)CC4)cc(C(F)(F)F)c3)ccc2C)ncn1", "values": [
      {"measurement": "inhibition", "setting": "[1]", "result": 0.4, "unit": "%"},
      {"measurement": "inhibition", "setting": "[2]", "result": 9.3, "unit": "%"},
      {"measurement": "inhibition", "setting": "[3]", "result": -5.8, "unit": "%"}
    ]},
    {"molecule": "CCN1CCN(Cc2ccc(NC(=O)c3ccc(C)c(/C=C/c4cnc5[nH]ccc5c4OC)c3)cc2C(F)(F)F)CC1", "values": [
      {"measurement": "inhibition", "setting": "[4]", "result": 4.2, "unit": "%"},
      {"measurement": "residual activity", "setting": "[5]", "result": 11, "unit": "%"}
    ]}
  ]
}
